{
  "source": "paper PMC7849180",
  "about": "(Frontiers in Pharmacology, 2020)",
  "key": {"[1]": {"assay": "Estimate of human equivalent and starting dose from animal NOAEL", "conditions": "for maximum safe starting dose in human: safety factor 10; for MRSD: safety factor 10, 60 kg", "experimental": "The human equivalent doses (HED) for the above tests were 9 mg/kg and 5 mg/kg, respectively (Table 9). According to the \"Guidance for Estimating the Maximum Recommended Dose in Initial Clinical Trials for Therapeutics in Adult Healthy Volunteers\" issued by CFDA and a safety factor of 10, the maximum safe starting doses for the first dose in human were calculated as about 50 mg and 30 mg, respectively.\nThe single starting dose of this study was set to 25 mg, while the highest dose was set to 400 mg. The 400 mg dose would not be further increased even it was […]\nAnimal Test Anima Dosage HNSTD HED MRSD […]\nToxicity Test 61.0/oral gavage in Beagle Dogs 196.2/oral gavage a The safety factor was 10, while the human body weight was calculated as 60 kg. […]"}, "[2]": {"assay": "PK, single intragastric dose", "format": "in vivo, beagles", "experimental": "Overall 2.0 (1.0-2.0) 0.593 ± 0.194 2.96 ± 1.07 3.03 ± 1.09 3.99 ± 0.40 2.24 ± 0.88 30.5 Male 2.0 (2.0-8.0) 0.765 ± 0.105 5.76 ± 3.51 5.82 ± 3.48 5.28 ± 2.11 2.31 ± 0.89 […] 61 Male 8.0 (4.0-12.0) 1.49 ± 0.33 16.6 ± 8.2 16.7 ± 8.2 7.73 ± 2.48 3.72 ± 0.79 Female 2.0 (2.0-6.0) 1.73 ± 0.75 17.4 ± 8.9 17.4 ± 8.9 6.33 ± 1.62 2.54 ± 1.06 […] (multiple […] Pharmacokinetics of single dose intravenous administration in beagles. After intravenous administration of 12.2 mg ZG0128 (the average weight of the beagles was about 10 kg, so the dose given equals to 1.22 mg/kg ZG0128), ZG0163 […] 3.49 L/kg. […] Pharmacokinetics of single-dose intragastric administration. […] mg/ZG0128). […] The plasma […] There were large individual differences in plasma exposure AUC0-t in dogs. The pharmacokinetic differences between genders could not be determined. […] increased proportionally with the increasing dosage. The average Tmax of metabolite ZG0245 was 2.0 h."}, "[3]": {"test_system": "primary cells harboring the JAK2V617F mutation in patients with polycythemia vera", "assay": "Colony forming of erythroid hematopoietic cells of polycythemia vera patients", "format": "cell-based, human", "conditions": "1 μM", "excerpt": "Suzhou Zelgen Biopharmaceuticals Co., Ltd. Jaktinib Hydrochloride Tablets Chemical Drug Class 1 New Drug and ZG0178. However, the inhibitory effect on the activity of Ba/F3-EpoR cell line […]\nrespectively. Obviously, this selective inhibition is associated with the aberrant expression of JAK2 in Ba/F3-EpoR-JAK2V617F mutant cells, and the degree of ZG0163 inhibition on JAK-STAT signaling pathway in this cell line. […]\ncells, and the effects of ZG0163 was similar to those of positive control compounds, […]\nIn Vitro Inhibitory Effect of ZG0128 on Cell Lines Transfected with Oncogenes and Primary Blood Cells in Patients with Polycythemia Vera\nIn vitro cell culture assay was used to determine whether compound ZG0128 […]\ncell line harboring a JAK2V617F mutation, and 8 HCD-57 cell lines stably transfected with oncogenic mutations JAK2V617F, MPLW515L, KITD816V, NPM-ALK, FLT3-ITD, FLT3D835H, FLT3D835Y and KRasG12V, respectively. In addition, study the inhibitory effects of compound ZG0128 on the growth of hematopoietic progenitor cells in patients with polycythemia vera.\n9 cell lines were similar to those of positive control drug ZG0192. At the sub-micromolar concentration, both compounds ZG0128 and ZG0192 were able to […]\nthe growth of HCD-57 cells transfected with oncogenic mutations JAK2V617F, […]\nspectrum inhibitory effect on tyrosine kinases. […]"}, "[4]": {"conditions": "rat, in vivo, po", "excerpt": "Chemical Drug Class 1 New Drug\nThe study consisted of 4 groups, including the control group and dose groups of […]"}},
  "data": [
    {"compound": "Jaktinib", "values": [
      {"measurement": "human equivalent dose (HED)", "setting": "[1]; from 26-week rat NOAEL", "value": 5, "unit": "mg/kg"},
      {"measurement": "human equivalent dose (HED)", "setting": "[1]; from 28-day Beagle dog NOAEL", "value": 9, "unit": "mg/kg"},
      {"measurement": "maximum safe starting dose in human", "setting": "[1]; from dog NOAEL", "value": "about 50 mg"},
      {"measurement": "MRSD", "setting": "[1]; from dog NOAEL", "value": 54, "unit": "mg/day"},
      {"measurement": "maximum safe starting dose in human", "setting": "[1]; from rat NOAEL", "value": "~30", "unit": "mg"},
      {"measurement": "MRSD", "setting": "[1]; from rat NOAEL", "value": 30, "unit": "mg/day"},
      {"measurement": "AUC0-t (mean)", "setting": "[2]; 61 mg ZG0128", "value": 459, "unit": "ng·h/mL"},
      {"measurement": "Cmax", "setting": "[2]; 61 mg ZG0128", "value": 156, "unit": "ng/mL"},
      {"measurement": "absolute bioavailability", "setting": "[2]; 61 mg, by AUC0-t", "value": 27.2, "unit": "%"},
      {"measurement": "AUC0-t (mean)", "setting": "[2]; 122 mg ZG0128", "value": 948, "unit": "ng·h/mL"},
      {"measurement": "Cmax", "setting": "[2]; 122 mg ZG0128", "value": 266, "unit": "ng/mL"},
      {"measurement": "AUC0-t (mean)", "setting": "[2]; 244 mg ZG0128", "value": 1728, "unit": "ng·h/mL"},
      {"measurement": "Cmax", "setting": "[2]; 244 mg ZG0128", "value": 444, "unit": "ng/mL"},
      {"measurement": "average Tmax", "setting": "[2]; 1, 2 and 4 tablets (61, 122, 244 mg ZG0128)", "value": 2.0, "unit": "h"},
      {"measurement": "average t1/2, range over doses", "setting": "[2]; 61–244 mg", "value": "1.31 to 2.49", "unit": "h"},
      {"measurement": "exposure as % of the medium dosage group (122 mg/animal)", "setting": "[2]; intragastric 122 mg ZG0128", "value": 93.0, "unit": "%"},
      {"measurement": "Tmax", "setting": "[2]; intragastric 122 mg ZG0128 (compared with medium dosage tablet group)", "value": 1.50, "unit": "h"}
    ]},
    {"compound": "Cl.Cl.O.[2H]C1([2H])COCC([2H])([2H])N1c1ccc(Nc2nccc(-c3ccc(C(=O)NCC#N)cc3)n2)cc1", "note": "[ZG0128, Jaktinib Dihydrochloride Monohydrate]", "values": [
      {"measurement": "colony forming of erythroid hematopoietic cells", "setting": "[3]", "value": "almost completely inhibited"},
      {"measurement": "maximum tolerated dose (MTD)", "setting": "[4]", "value": 732, "unit": "mg/kg"}
    ]}
  ]
}
